Measured values taken from ChEMBL document CHEMBL1201862, “PubChem BioAssay data set” (2004).
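Cells were grown in 96-well plates and exposed to each compound for 48 hours at five concentrations; endpoints were interpolated linearly between bracketing concentrations, or set to the highest concentration if not reached. The concentration for 50% growth inhibition is given as GI50.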 Active and inactive are the calls of the source. Rule as the data show it: active = GI50 up to about 1.1 µM and inactive = higher.

What was measured:
Experiment in all cases: growth of human tumour cells (NCI), 48 h
[1] = test system: 786-0
[2] = test system: A498
[3] = test system: A549
[4] = test system: ACHN
[5] = test system: CAKI-1
[6] = test system: CCRF-CEM
[7] = test system: COLO 205
[8] = test system: DLD-1
[9] = test system: DMS-114
[10] = test system: DMS-273
[11] = test system: EKVX
[12] = test system: HCC 2998
[13] = test system: HCT-116
[14] = test system: HCT-15
[15] = test system: HL-60
[16] = test system: HOP-62
[17] = test system: HOP-92
[18] = test system: HT-29
[19] = test system: IGROV-1
[20] = test system: K562
[21] = test system: KM-20L2
[22] = test system: KM12
[23] = test system: LOX IMVI
[24] = test system: LXFL 529
[25] = test system: M14
[26] = test system: M19-MEL
[27] = test system: MOLT-4
[28] = test system: Malme-3M
[29] = test system: NCI-H226
[30] = test system: NCI-H23
[31] = test system: NCI-H460
[32] = test system: NCI-H522
[33] = test system: OVCAR-3
[34] = test system: OVCAR-4
[35] = test system: OVCAR-5
[36] = test system: OVCAR-8
[37] = test system: RPMI-8226
[38] = test system: RXF 393
[39] = test system: RXF 631
[40] = test system: SF-268
[41] = test system: SF-295
[42] = test system: SF-539
[43] = test system: SK-MEL-28
[44] = test system: SK-MEL-2
[45] = test system: SK-OV-3
[46] = test system: SN12C
[47] = test system: SNB-19
[48] = test system: SNB-75
[49] = test system: SNB-78
[50] = test system: SW-620
[51] = test system: TK-10
[52] = test system: U-251
[53] = test system: UACC-257
[54] = test system: UACC-62
[55] = test system: UO-31

SMILES: COc1cc(CC(=O)O)c([N+](=O)[O-])cc1OC
- GI50 [1]: > 100 µM (inactive)
- GI50 [2]: > 100 µM (inactive)
- GI50 [3]: > 100 µM (inactive)
- GI50 [4]: > 100 µM (inactive)
- GI50 [5]: > 100 µM (inactive)
- GI50 [6]: > 100 µM (inactive)
- GI50 [7]: > 100 µM (inactive)
- GI50 [8]: > 100 µM (inactive)
- GI50 [9]: > 100 µM (inactive)
- GI50 [10]: > 100 µM (inactive)
- GI50 [11]: > 100 µM (inactive)
- GI50 [12]: > 100 µM (inactive)
- GI50 [13]: > 100 µM (inactive)
- GI50 [14]: > 100 µM
- GI50 [15]: > 100 µM (inactive)
- GI50 [16]: > 100 µM (inactive)
- GI50 [17]: > 100 µM (inactive)
- GI50 [18]: > 100 µM (inactive)
- GI50 [19]: > 100 µM (inactive)
- GI50 [20]: > 100 µM (inactive)
- GI50 [21]: > 100 µM (inactive)
- GI50 [22]: > 100 µM (inactive)
- GI50 [23]: > 100 µM (inactive)
- GI50 [24]: > 100 µM (inactive)
- GI50 [25]: > 100 µM (inactive)
- GI50 [26]: > 100 µM (inactive)
- GI50 [27]: > 100 µM (inactive)
- GI50 [28]: > 100 µM (inactive)
- GI50 [29]: > 100 µM (inactive)
- GI50 [30]: > 100 µM (inactive)
- GI50 [31]: > 100 µM (inactive)
- GI50 [32]: > 100 µM (inactive)
- GI50 [33]: > 100 µM (inactive)
- GI50 [34]: > 100 µM (inactive)
- GI50 [35]: > 100 µM (inactive)
- GI50 [36]: > 100 µM (inactive)
- GI50 [37]: > 100 µM (inactive)
- GI50 [38]: > 100 µM (inactive)
- GI50 [39]: > 100 µM (inactive)
- GI50 [40]: > 100 µM (inactive)
- GI50 [41]: > 100 µM (inactive)
- GI50 [42]: > 100 µM (inactive)
- GI50 [43]: > 100 µM (inactive)
- GI50 [44]: > 100 µM (inactive)
- GI50 [45]: > 100 µM (inactive)
- GI50 [46]: > 100 µM (inactive)
- GI50 [47]: > 100 µM (inactive)
- GI50 [48]: > 100 µM (inactive)
- GI50 [49]: > 100 µM (inactive)
- GI50 [50]: > 100 µM (inactive)
- GI50 [51]: > 100 µM (inactive)
- GI50 [52]: > 100 µM (inactive)
- GI50 [53]: > 100 µM (inactive)
- GI50 [54]: > 100 µM (inactive)
- GI50 [55]: > 100 µM (inactive)
